# Reference: patent publication US20040121994A1, “Novel amides that activate soluble guanylate cyclase” (priority 2002, published 2004)
# Target: T1, soluble guanylate cyclase (sGC), α1 and β1 subunits of guanylate cyclase expressed in Sf9 cells (Homo sapiens, UniProt Q02108+Q02153)
# T1 construct: made in house; host or cells: Sf9 insect cells (baculovirus co-infection)
# T1 sequence (Q02108 1-690): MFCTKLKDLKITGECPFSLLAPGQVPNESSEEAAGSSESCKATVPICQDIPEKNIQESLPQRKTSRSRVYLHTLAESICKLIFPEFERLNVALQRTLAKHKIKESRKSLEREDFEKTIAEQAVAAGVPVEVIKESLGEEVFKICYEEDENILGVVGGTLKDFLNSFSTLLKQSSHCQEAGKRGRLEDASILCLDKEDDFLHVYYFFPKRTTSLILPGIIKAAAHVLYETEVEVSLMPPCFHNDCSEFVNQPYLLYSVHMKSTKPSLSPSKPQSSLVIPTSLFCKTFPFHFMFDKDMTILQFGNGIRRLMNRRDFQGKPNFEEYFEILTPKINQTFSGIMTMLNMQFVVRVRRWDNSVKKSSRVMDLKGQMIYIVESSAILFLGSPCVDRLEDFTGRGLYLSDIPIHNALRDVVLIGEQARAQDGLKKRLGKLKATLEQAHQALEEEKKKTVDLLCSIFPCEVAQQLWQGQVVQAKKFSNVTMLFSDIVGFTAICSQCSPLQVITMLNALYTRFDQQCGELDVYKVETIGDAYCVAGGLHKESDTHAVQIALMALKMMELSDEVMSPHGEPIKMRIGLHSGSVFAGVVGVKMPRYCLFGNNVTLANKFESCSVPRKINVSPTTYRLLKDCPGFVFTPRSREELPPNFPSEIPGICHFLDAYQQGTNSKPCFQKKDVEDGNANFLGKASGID
# T1 sequence (Q02153 1-619): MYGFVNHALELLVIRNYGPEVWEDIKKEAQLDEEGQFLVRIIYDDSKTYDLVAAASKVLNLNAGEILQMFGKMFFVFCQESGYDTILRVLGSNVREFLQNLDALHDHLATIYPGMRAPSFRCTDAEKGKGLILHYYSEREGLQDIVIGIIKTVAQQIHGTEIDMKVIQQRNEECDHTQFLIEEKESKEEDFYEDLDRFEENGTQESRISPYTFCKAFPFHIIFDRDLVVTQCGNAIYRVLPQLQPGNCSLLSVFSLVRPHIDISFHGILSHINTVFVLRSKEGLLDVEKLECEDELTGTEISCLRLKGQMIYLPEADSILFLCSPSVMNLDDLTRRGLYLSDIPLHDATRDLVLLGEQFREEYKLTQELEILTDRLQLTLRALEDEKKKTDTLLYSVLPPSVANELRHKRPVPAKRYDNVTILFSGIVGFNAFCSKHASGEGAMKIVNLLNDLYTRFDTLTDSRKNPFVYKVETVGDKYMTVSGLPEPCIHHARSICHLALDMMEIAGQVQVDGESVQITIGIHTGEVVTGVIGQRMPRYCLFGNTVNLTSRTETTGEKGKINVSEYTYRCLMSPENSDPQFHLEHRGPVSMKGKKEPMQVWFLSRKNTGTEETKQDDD
# Experiment: Guanylate cyclase assay (formation of cyclic GMP from GTP)
# Type: biochemical
# Details: for Mean activation at 100 μM: (activity of compound at 100 μM with 1 μM SNP)−(activity of compound at 100 μM)/(activity of SNP at 1 μM)−(basal activity of sGC); for Mean efficacy of compound combined with 1 μM of SNP, [%]: compound at 100 μM with 1 μM sodium nitro prusside (SNP); for Mean efficacy of compound combined with 1 μM of SNP, [%] / Emax at 100 µM: normalized with the activity of 100 μM YC-1 (without SNP) as 100%; for Emax at 100 µM: compound at 100 μM without SNP, read-out: Mean basal efficacy of compound alone at 100 μM, [%]
# Method: Sf9 cells were cultured in Sf-90011 medium supplemented with 10% (v/v) fetal calf serum at 28° C. to give a count of 6×10^5 cells/ml. The cells were then infected with a mixture of the virus stocks for the α1 and β1 subunits of guanylate cyclase at a multiplicity of infection of 0.1 pfu/cell. The cells were harvested 72 hours after infection and were pelleted by centrifugation. The resulting cell pellets were homogenized with Polytron homogenizer in 3 volumes of 20 mM Tris-HCl (pH 7.6) containing 1 mM EDTA, 5 mM dithiothreitol, 90 mM NaCl, 10% glycerol, and protease inhibitors mix (Roche Molecular Biochemicals). The homogenate was centrifuged at 50,000×g for 60 minutes and the supernatant was aliquotted and stored at −80° C.
# Compounds of the present invention were dissolved in DMSO to make 100 mM and saved as stocks at −20° C. When compounds were tested, prepared 10-fold concentrated solutions with 10% DMSO. Then added 10 μl of 10-fold concentrated compound solutions to the reaction mixture of total 100 μl.
# Guanylate cyclase activity was measured by the formation of cyclic GMP from GTP in a total volume of 100 μl. Guanylate cyclase-expressed Sf9 cell high-speed supernatant was used as an enzyme source for the assay. The reaction mixture containing 0.1 μl enzyme (Sf9 high-speed sup), compound solution, 50 mM Tris-HCl (pH 7.6), 4 mM MgCl2, 0.5 mM IBMX, 15 mM creatine phosphate, 20 μg creatine phosphokinase, 0.1% BSA and 1 mM GTP was incubated at 37° C. for 15 minutes. After the reaction, 0.9 ml of 50 mM sodium acetate buffer (pH 5.8) was added followed by boiling for 3 minutes to stop the reaction. The solution was centrifuged at 3000 rpm for 15 minutes at room temperature and cyclic GMP in 20 μl of the resulting supernatant was measured according to the protocol of Amersham cyclic GMP enzymeimmunoassay system (purchased from Sigma, catalogue number RPN 226).
# Compounds of the present invention were tested at 100 μM with and without 1 μM sodium nitro prusside (SNP). 1-Benzyl-3-hydroxymethyl-2-furylindazole (YC-1) was included as a standard for each assay. The data was normalized with the activity of 100 μM YC-1 (without SNP) as 100%. Mean basal efficacy, in Table 1, was expressed as a percentage of 100 μM YC-1 (without SNP).
# The mean activation, in Table 1, was calculated based on the formula: (activity of compound of the present invention at 100 μM with 1 μM SNP)−(activity of compound of the present invention at 100 μM)/(activity of SNP at 1 μM)−(basal activity of sGC).
SMILES,Mean activation at 100 μM,"Mean efficacy of compound combined with 1 μM of SNP, [%]",Emax at 100 µM [%]
"O=C(/C=C/c1cccnc1Sc1ccccc1Cl)NC1CCC(O)CC1 (stereo not drawn) [Example 20, (2E)-3-{2-[(2-chlorophenyl)thio]-3-pyridinyl}-N-(4-hydroxycyclohexyl)acrylamide]",6.3,199,90
"CC(C)CSc1ccccc1/C=C/C(=O)NC1CCCCC1O (stereo not drawn) [Example 21, (2E)-N-(2-hydroxycyclohexyl)-3-[2-(isobutylthio)phenyl]acrylamide]",4.1,106,45
"O=C(/C=C/c1ccccc1SC1CCCC1)NC1CCCCC1O (stereo not drawn) [Example 22, (2E)-3-[2-(cyclopentylthio)phenyl]-N-(2-hydroxycyclohexyl)acrylamide]",3.9,169,158
"O=C(/C=C/c1ccccc1SC1CCCCC1)NC1CCCCC1O (stereo not drawn) [Example 23, (2E)-3-[2-(cyclohexylthio)phenyl]-N-(2-hydroxycyclohexyl)acrylamide]",2.7,187,174
"CC(C)Sc1ccccc1/C=C/C(=O)NC1CCC(O)CC1 (stereo not drawn) [Example 24, (2E)-N-(4-hydroxycyclohexyl)-3-[2-(isopropylthio)phenyl]acrylamide]",1.6,17,4
"O=C(/C=C/c1ccccc1SC1CCCC1)NC1CCC(O)CC1 (stereo not drawn) [Example 25, (2E)-3-[2-(cyclopentylthio)phenyl]-N-(4-hydroxycyclohexyl)acrylamide]",9.5,430,242
"O=C(/C=C/c1ccccc1SC1CCCCC1)NC1CCC(O)CC1 (stereo not drawn) [Example 26, (2E)-3-[2-(cyclohexylthio)phenyl]-N-(4-hydroxycyclohexyl)acrylamide]",7.9,506,353
"CCCCCSc1ccccc1/C=C/C(=O)NC1CCC(O)CC1 (stereo not drawn) [Example 27, (2E)-N-(4-hydroxycyclohexyl)-3-[2-(pentylthio)phenyl]acrylamide]",8.3,278,115
"Cc1ccc(/C=C/C(=O)NC2CCC(O)CC2)c(Sc2ccc(Cl)cc2)n1 (stereo not drawn) [Example 28, (2E)-3-{2-[(4-chlorophenyl)thio]-6-methyl-3-pyridinyl}-N-(4-hydroxycyclohexyl)acrylamide]",2.6,18,6
"CC(CCCC(C)(C)O)NC(=O)/C=C/c1ccccc1Sc1ccc(Cl)cc1 (stereo not drawn) [Example 31, (2E)-3-{2-[(4-chlorophenyl)thio]phenyl}-N-(5-hydroxy-1,5-dimethylhexyl)acrylamide]",3.7,187,93
"CCNC(=O)/C=C/c1ccccc1Sc1ccc(Cl)cc1 [Example 32, (2E)-3-{2-[(4-chlorophenyl)thio]phenyl}-N-ethylacrylamide]",10.5,78,27
"CCCCNC(=O)/C=C/c1ccccc1Sc1ccc(Cl)cc1 [Example 33, (2E)-N-butyl-3-{2-[(4-chlorophenyl)thio]phenyl}acrylamide]",6.9,38,7
"O=C(/C=C/c1ccccc1Sc1ccc(Cl)cc1)NCCCCO [Example 34, (2E)-3-{2-[(4-chlorophenyl)thio]phenyl}-N-(4-hydroxybutyl)acrylamide]",6.9,219,113
